From ChEMBL document CHEMBL5505993, “Identification of a ferritinophagy inducer via sinomenine modification for the treatment of colorectal cancer” (Eur J Med Chem, 2024)
Active and inactive are the calls of the source.

Experiments:
[1] = Cytotoxicity against human NCM460 cells assessed as inhibition of cell growth incubated for 48 hrs by CCK-8 assay; type: toxicity, cell-based
HCT-116 [2] = assay: Induction of ROS production in human HCT-116 cells incubated for 12 hrs by DCFH-DA probe based flow cytometry; type: functional, cell-based
HCT-116 [3] = assay: Induction of […] ROS production in human HCT-116 cells incubated for 12 hrs by DCFH-DA probe based flow cytometry; type: functional, cell-based
HCT-116 [4] = assay: Cytotoxicity against human HCT-116 cells assessed as inhibition of cell growth incubated for 24 hrs by CCK-8 assay; type: functional, cell-based; conditions: HCT-116, 24 h
HCT-116 [5] = assay: Inhibition of colony formation in human HCT-116 cells incubated for 12 hrs by crystal violet staining based analysis; type: functional, cell-based
HCT-116 [6] = assay: Induction of ferroptosis in human HCT-116 cells assessed as increase in intracellular lipid ROS accumulation at 5 to 20 uM incubated for 12 hrs by C11 BODIPY probe based fluorescence microscopic analysis; type: functional, cell-based; conditions: dose 5-20 µM
HCT-116 [7] = assay: Induction of ferroptosis in human HCT-116 cells assessed as increase in intracellular lipid ROS accumulation at 5 to 20 uM incubated for 12 hrs by C11 BODIPY probe based flow cytometry; type: functional, cell-based; conditions: dose 5-20 µM
HCT-116 [8] = assay: Induction of ferroptosis in human HCT-116 cells assessed as increase in intracellular lipid ROS accumulation at 20 uM incubated for 12 hrs in presence of ferroptosis inhibitor, deferoxamine mesylate by C11 BODIPY probe based flow cytometry; type: functional, cell-based
HCT-116 [9] = assay: Induction of ferroptosis in human HCT-116 cells assessed as increase in intracellular lipid ROS accumulation at 20 uM incubated for 12 hrs in presence of ferroptosis inhibitor, Ferrostatin-1 by C11 BODIPY probe based flow cytometry; type: functional, cell-based
HCT-116 [10] = assay: Induction of ferroptosis in human HCT-116 cells assessed as increase in 4-HNE level in presence of Ferrostatin-1 at 20 uM by ELISA; type: functional, cell-based
HCT-116 [11] = assay: Induction of ferroptosis in human HCT-116 cells assessed as effect on ACSL4 protein expression at 5 to 20 uM incubated for 12 hrs by Western blotting analysis; type: functional, cell-based; conditions: dose 5-20 µM
HCT-116 [12] = assay: Induction of ferroptosis in human HCT-116 cells assessed as effect on AIFM2 protein expression at 5 to 20 uM incubated for 12 hrs by Western blotting analysis; type: functional, cell-based; conditions: dose 5-20 µM
HCT-116 [13] = assay: Induction of ferroptosis in human HCT-116 cells assessed as increase in intracellular ferrous ion level incubated for 12 hrs by ferroOrange probe based flow cytometric analysis; type: functional, cell-based
HCT-116 [14] = assay: Induction of ferroptosis in human HCT-116 cells assessed as increase in intracellular ferrous ion level incubated for 12 hrs by ferroOrange probe based confocal fluorescence microscopic analysis; type: functional, cell-based
HCT-116 [15] = assay: Induction of ferroptosis in human HCT-116 cells assessed as increase in intracellular ferrous ion level at 20 uM incubated for 12 hrs in presence of ferroptosis inhibitor, deferoxamine mesylate by ferroOrange probe based flow cytometric analysis; type: functional, cell-based
HCT-116 [16] = assay: Induction of ferroptosis in human HCT-116 cells assessed as increase in ferrous ion level in lysosomes at 20 uM incubated for 12 hrs by Lyso tracker red staining based confocal fluorescence microscopic analysis; type: functional, cell-based
HCT-116 [17] = assay: Induction of ferroptosis in human HCT-116 cells assessed as increase in ferrous ion level in lysosomes at 20 uM incubated for 12 hrs by Hoechst 33342 staining based confocal fluorescence microscopic analysis; type: functional, cell-based
HCT-116 [18] = assay: Induction of autophagy in human HCT-116 cells transfected with mRFP-GFP-LC3B assessed as formation of autophagosomes by measuring reduction in GFP to mRFP fluorescence ratio at 5 to 20 uM incubated for 12 hrs by Lyso tracker red staining based confocal fluorescence microscopic analysis; type: functional, cell-based; conditions: dose 5-20 µM
HCT-116 [19] = assay: Induction of autophagy in human HCT-116 cells transfected with mRFP-GFP-LC3B assessed as colocalization of lysosome with LC3B protein at 20 uM incubated for 12 hrs by Lyso tracker red staining based confocal fluorescence microscopic analysis; type: functional, cell-based
HCT-116 [20] = assay: Induction of autophagy in human HCT-116 cells assessed as increase in intracellular ferrous ion level at 20 uM incubated for 12 hrs by Lyso tracker green staining based confocal microscopic analysis; type: functional, cell-based
HCT-116 [21] = assay: Induction of ferritin autophagy in human HCT-116 cells assessed as upregulation of FTH1 protein expression at 20 uM incubated for 12 hrs in presence of autophagy inhibitor, Bafilomycin A1 by Western blotting analysis; type: functional, cell-based
HCT-116 [22] = assay: Antitumor activity against human HCT-116 cells xenografted in BALB/c mouse assessed as reduction in tumor growth at 30 mg/kg,ip administrated daily for 14 days; type: functional, organism-based; conditions: time 14.0 day
HCT-116 [23] = assay: Antitumor activity against human HCT-116 cells xenografted in BALB/c mouse assessed as reduction in tumor growth at 60 mg/kg,ip administrated daily for 14 days; type: functional, organism-based; conditions: time 14.0 day
HCT-116 [24] = assay: Antitumor activity against human HCT-116 cells xenografted in BALB/c mouse assessed as reduction in tumor weight at 30 mg/kg,ip administrated daily for 14 days; type: functional, organism-based; conditions: time 14.0 day
HCT-116 [25] = assay: Antitumor activity against human HCT-116 cells xenografted in BALB/c mouse assessed as reduction in tumor density at 60 mg/kg,ip administrated daily for 14 days by hematoxylin and eosin staining based microscopic analysis; type: functional, organism-based; conditions: time 14.0 day
HCT-116 [26] = assay: Antitumor activity against human HCT-116 cells xenografted in BALB/c mouse assessed as presence of pyknotic nucleus at 60 mg/kg,ip administrated daily for 14 days by hematoxylin and eosin staining based microscopic analysis; type: functional, organism-based; conditions: time 14.0 day
HCT-116 [27] = assay: Antitumor activity against human HCT-116 cells xenografted in BALB/c mouse assessed as tumor cell rupture at 30 mg/kg,ip administrated daily for 14 days by hematoxylin and eosin staining based microscopic analysis; type: functional, organism-based; conditions: time 14.0 day
HCT-116 [28] = assay: Antitumor activity against human HCT-116 cells xenografted in BALB/c mouse assessed as increase in FTH1 expression at 30 mg/kg,ip administrated daily for 14 days by immunohistochemistry; type: functional, organism-based; conditions: time 14.0 day
HCT-116 [29] = assay: Antitumor activity against human HCT-116 cells xenografted in BALB/c mouse assessed as increase in LC3B expression at 30 mg/kg,ip administrated daily for 14 days by immunohistochemistry; type: functional, organism-based; conditions: time 14.0 day
HCT-116 [30] = assay: Antitumor activity against human HCT-116 cells xenografted in BALB/c mouse assessed as increase in 4-HNE level in tumor at 30 mg/kg,ip administrated daily for 14 days by ELISA; type: functional, organism-based; conditions: time 14.0 day
[31] = Toxicity in BALB/c mouse xenografted with human HCT-116 cells assessed as histopathological changes in heart at 30 mg/kg,ip administrated daily for 14 days by hematoxylin and eosin staining based microscopic analysis; type: organism-based; conditions: in vivo, 336 h, time 14 day
[32] = Toxicity in BALB/c mouse xenografted with human HCT-116 cells assessed as histopathological changes in lung at 30 mg/kg,ip administrated daily for 14 days by hematoxylin and eosin staining based microscopic analysis; type: organism-based; conditions: in vivo, 336 h, time 14 day
[33] = Toxicity in BALB/c mouse xenografted with human HCT-116 cells assessed as histopathological changes in lung at 60 mg/kg,ip administrated daily for 14 days by hematoxylin and eosin staining based microscopic analysis; type: organism-based; conditions: in vivo, 336 h, time 14 day
HCT-116 [34] = assay: Induction of ferroptosis in human HCT-116 cells assessed as effect on GSH level at 5 to 20 uM incubated for 12 hrs; type: functional, cell-based; conditions: dose 5-20 µM

C=C(Cl)C(=O)NCCCCCCCCCCCC(=O)Oc1c(OC)ccc2c1[C@@]13CCN(C)[C@@H](C2)[C@H]1C=C(OC)C(=O)C3
Non-Toxic: Activity [31] | Activity [32] | Activity [33]
19 µM: IC50 at 48 h [1]
active: Activity (HCT-116 [2]) | Activity (HCT-116 [3]) | inhibition (HCT-116 [5]) Dose-Dependent Effect | Activity (HCT-116 [6]) | Activity (HCT-116 [7]) | Activity (HCT-116 [8]) | Activity (HCT-116 [9]) | Activity (HCT-116 [13]) Dose-Dependent Effect | Activity (HCT-116 [14]) Dose-Dependent Effect | Activity (HCT-116 [16]) | Activity (HCT-116 [17]) | Activity (HCT-116 [18]) | Activity (HCT-116 [19]) | Activity (HCT-116 [20]) | Activity (HCT-116 [22]) | Activity (HCT-116 [23]) | Activity (HCT-116 [24]) | Activity (HCT-116 [25]) | Activity (HCT-116 [26]) | Activity (HCT-116 [27]) | Activity (HCT-116 [28]) | Activity (HCT-116 [29]) | Activity (HCT-116 [30])
inactive: Activity (HCT-116 [10]) | Activity (HCT-116 [11]) | Activity (HCT-116 [12]) | Activity (HCT-116 [15]) | Activity (HCT-116 [21]) | Activity (HCT-116 [34])
11.2 µM: IC50 (HCT-116 [4])
